Experiment [1] concerns the target T1, Autotaxin (Homo sapiens, UniProt Q13822). The experiment in a line: Inhibition of human ATX using FS-3 as substrate measured every 5 mins for 30 mins by fluorescence assay.
Experiment [2] concerns the target T1, Autotaxin. Description: Inhibition of ATX in human plasma using LPC as substrate pretreated for 15 mins followed by substrate addition measured after 3 hrs by LC-MS/MS analysis.

In turn, `NS(=O)(=O)c1cc(-c2csc(C(=O)NCc3ccc(Cl)cc3)n2)ccc1Cl` showed an IC50 in experiment [1] of 2.11 µM.

As for `O=C(OCc1ccccc1)N1CCC(Nc2nc(-c3ccc(CP(=O)(O)O)cc3)cs2)C1` (configuration not stated), in experiment [1], half-maximal inhibition (IC50) was put at 0.0103 µM.

As to `CS(=O)(=O)Nc1ccc(-c2csc(C(=O)NC3CCN(C(=O)OCc4cc(Cl)cc(Cl)c4)CC3)n2)cc1`, the IC50 in experiment [2] was determined as 0.735 µM; in experiment [1], 0.00299 µM.

Turning to `NC(=O)c1cc(-c2csc(NC3CCN(C(=O)OCc4ccccc4)C3)n2)ccc1O` (configuration not stated), it took 4.47 µM to reach half-maximal inhibition in experiment [1] (IC50).

In experiment [1], `O=C(OCc1ccccc1)N1CCC(Nc2nc(-c3ccc(CP(=O)(O)O)cc3)cs2)CC1` returned an IC50 of 0.0759 µM.

`CN(c1ccc(S(N)(=O)=O)cc1)c1nc(-c2ccc(O)c(CO)c2)cs1`: half-maximal inhibition in experiment [1] (IC50) required 5.82 µM.

`O=C(OCc1ccccc1)N1CCC(Nc2nc(-c3ccc(O)c(O)c3)cs2)C1` (configuration not stated) had an IC50 in experiment [1] of 1.23 µM.

In experiment [1], `NS(=O)(=O)c1cc(-c2csc(C(=O)Nc3cccc(C(=O)O)c3)n2)ccc1Cl` yielded an IC50 of 10.5 µM.

In experiment [1], `NS(=O)(=O)c1cc(-c2csc(NC3CCN(C(=O)OCc4ccccc4)CC3)n2)ccc1Cl` gave an IC50 of 1.3 µM.

Regarding `NS(=O)(=O)c1cc(-c2csc(C(=O)NC3CCN(C(=O)OCc4ccccc4)CC3)n2)ccc1Cl`, the IC50 in experiment [1] came to 0.505 µM.

For the compound `CS(=O)(=O)Nc1cccc(-c2csc(NC3CCN(C(=O)OCc4cc(Cl)cc(Cl)c4)CC3)n2)c1`, the IC50 in experiment [1] was > 0.1 µM.

The compound `CN(c1ccc(S(N)(=O)=O)cc1)c1nc(-c2ccc(O)c(C(=O)O)c2)cs1` had an IC50 in experiment [1] of 10.6 µM.

Regarding `COc1ccc(-c2csc(C(=O)NC3CCN(C(=O)OCc4cc(Cl)cc(Cl)c4)CC3)n2)cc1`, in experiment [1], the midpoint of inhibition, the IC50, lay at 0.0303 µM.

Consider `NS(=O)(=O)c1cc(-c2csc(NC3CCN(C(=O)OCc4ccccc4)C3)n2)ccc1Cl` (configuration not stated), for which, in experiment [1], it took 1.34 µM to reach half-maximal inhibition (IC50).

The compound `O=C(Cc1cccc(Nc2nc(-c3ccc(O)c(O)c3)cs2)c1)NCc1ccccc1` gave an IC50 in experiment [1] of 8.06 µM.

The compound `NS(=O)(=O)c1cc(-c2csc(C(=O)NC3CCN(C(=O)OCc4cc(Cl)cc(Cl)c4)CC3)n2)ccc1Cl` displayed an IC50 in experiment [1] of 0.00447 µM.

For the compound `O=C(O)c1cc(-c2csc(NC3CCN(C(=O)OCc4ccccc4)C3)n2)ccc1O` (configuration not stated), the IC50 in experiment [1] was 10.9 µM.

On to `O=C(NC1CCN(C(=O)OCc2cc(Cl)cc(Cl)c2)CC1)c1nc(-c2ccc(CP(=O)(O)O)cc2)cs1`, for which the IC50 in experiment [2] came to 0.015 µM; in experiment [1], 0.00219 µM.

In experiment [1], `CN(c1ccc(S(N)(=O)=O)cc1)c1nc(-c2ccc(O)c(C(N)=O)c2)cs1` came in with an IC50 of 6.57 µM.

`O=C(NC1CCN(C(=O)OCc2ccccc2)CC1)c1nc(-c2ccc(CP(=O)(O)O)cc2)cs1`: the IC50 in experiment [1] came out at 0.0137 µM.

`O=C(Nc1cccc(Nc2nc(-c3ccc(O)c(O)c3)cs2)c1)OCc1ccccc1` displayed an IC50 in experiment [1] of 9.43 µM.

Turning to `CN(c1ccc2c(c1)CS(=O)(=O)N2)c1nc(-c2ccc(O)c(C(=O)O)c2)cs1`, the IC50 in experiment [1] is > 10 µM.

As to `CS(=O)(=O)Nc1ccc(-c2csc(N(Cc3ccccn3)c3ccc4nn[nH]c4c3)n2)cc1`, the IC50 in experiment [1] amounted to 2.57 µM.

Regarding `O=C(NC1CCN(C(=O)OCc2cc(Cl)cc(Cl)c2)CC1)c1nc(-c2ccc(Cl)cc2)cs1`, the IC50 in experiment [1] stood at 0.0633 µM.

In experiment [1], `O=S(=O)(Cc1cccc(Nc2nc(-c3ccc(O)c(O)c3)cs2)c1)NCc1ccccc1` had an IC50 of 11.6 µM.

The IC50 is the midpoint of a concentration-inhibition curve.

The record behind these values is ChEMBL document CHEMBL4052794, “Design, synthesis, docking and biological evaluation of 4-phenyl-thiazole derivatives as autotaxin (ATX) inhibitors” (Bioorg Med Chem Lett, 2017).
